Laboratory results published in patent US9333244B2, “Composition and lipid formulation of a hyaluronan-degrading enzyme and the use thereof for treatment of benign prostatic hyperplasia” (Halozyme, Inc., priority 2011, dated 2016).

Columns and labels:
[1] = test system: TE-induced rat prostatic hyperplasia; experiment: Rat model of TE-induced prostatic hyperplasia: prostate weight; assay type: in vivo
Experimental: In this example, the ability of testosterone enanthate (TE) to induce prostatic hyperplasia in rat prostate was examined. Briefly, twenty-five (25) 8-week old male Sprague-Dawley rats (Harlan, USA) were dosed by intramuscular injection with 25 mg TE (Lot#80G010A, Abraxis Bioscience, Phoenix, Ariz.) per rat, once a week, on days 0, 7, 14 and 21. Five (5) out of 25 rats were sacrificed pre-TE treatment and 5 of the remaining 20 rats were sacrificed weekly. The ventral lobes of the prostates were harvested for analysis. […] Additionally, the increase in rat prostatic weight was linearly related to sustained TE exposure. The half-life of TE in the rat blood was approximately 10.5 days (Anderson R A, J Clin Endocrinol Metab., (1996) 81(3):896-901).
(§1) In this example, PEGPH20 was administered to TE-induced prostatic hyperplasic rats to evaluate its effect on prostate weight. Testosterone enanthate was administered by intramuscular injection and PEGPH20 (diluted in normal saline) was administered intravenously. Following treatment, the animals were sacrificed and the ventral lobes of the prostates were harvested for analysis. Prostate weight was measured using an electronic scale.
as §1, with “Testosterone” for “In this example, PEGPH20 was administered to TE-induced prostatic hyperplasic rats to evaluate its effect on prostate weight. Testosterone”
as §1, with “example, the time-dependence of treatment of rat BPH with” for “example,”, “evaluated by administering PEGPH20 at various time points.” for “administered to TE-induced prostatic hyperplasic rats to evaluate its effect on prostate weight.”
In this example, the effect of treatment with PEGPH20 was compared to treatment with finasteride using the rat TE-prostatic hyperplasia model. Testosterone enanthate was administered by intramuscular injection, PEGPH20 (diluted in normal saline) was administered intravenously and finasteride was administered intraperitoneally. On day 21 the animals were sacrificed and the ventral lobes of the prostates were harvested for analysis. Prostate weight was measured using an electronic scale.
In this example, the effect of combination therapy with PEGPH20 and finasteride was evaluated. PEGPH20 was administered at a dose of either 0.82 mg/kg (low dose) or 2 mg/kg (high dose). Testosterone enanthate was administered by intramuscular injection, PEGPH20 (diluted in normal saline) was administered intravenously and finasteride was administered intraperitoneally. On day 21 the animals were sacrificed and the ventral lobes of the prostates were harvested for analysis. Prostate weight was measured using an electronic scale.
Percent (%) inhibition was determined according to the formula: ((Control-treated)/Control)×100. […] The prostatic water content of each group was calculated from the wet weight and the dry weight and found to be the same for all groups (˜80%). Therefore, the change in prostate weight cannot be attributed to decreased tissue water.
Testosterone enanthate was administered by intramuscular injection, PEGPH20 was administered intravenously or by intra-prostatic injection and DepoGel vehicle or DepoPH20 were administered by intra-prostatic injection. On day 21 the animals were sacrificed and the ventral lobes of the prostates were harvested for analysis. Prostate weight was measured using an electronic scale.
(§2) In this study, 25 mg TE was administered […] to each rat on days 1 and 7. 50 μL of 4700 U/mL (0.18 mg/mL) MVL-PH20F40 and 50 μL MVL-Vehicle were administered intraprostatically on day 7. […]

[2] = test system: prostatic stroma and stromal HA; experiment: Prostatic histology: stromal HA (biotinylated HABP) and stromal proliferation (H&E); assay type: in vivo; conditions: rat prostate stroma; substance alone (PEGPH20 0.82 mg/kg iv, day 12; TE 25 mg/rat im days 0 and 8, day 18)
Experimental: In this example, the effect of PEGPH20 on prostatic stroma and stromal HA of normal and TE-induced prostatic hyperplasia rats was analyzed by prostatic histology, including hematoxylin and eosin staining and IHC staining. Stromal proliferation was determined by visually comparing the size of the stroma. Testosterone enanthate was administered by intramuscular injection and PEGPH20 (diluted in normal saline) and control were administered intravenously. Following treatment, the animals were sacrificed and the ventral lobes of the prostates were harvested for analysis.
Prostate tissues were fixed in 10% neutral buffered formalin in PBS for 24 hours, dehydrated with gradient ethanol, cleared with xylene, and embedded in paraffin. Paraffin block was cut to 5 μm sections. Tissue sections were dewaxed, rehydrated and processed by standard hematoxylin and eosin (H&E) staining. Histochemical localization of HA was carried out using a biotinylated-HABP probe (bHABP, Cat#400763-1A, Associates of Cape Cod, Mass.). Sections were deparaffinized in xylene, 2×5 min, hydrated in 100% ethanol, for 2×3 min, and in 95% ethanol for 1 min, then rinsed in distilled water, incubated at 37° C. for 20 min in a trypsin solution, and rinsed in PBS for 2×2 min. […]

prostate stromal cells = experiment: TUNEL assay, apoptosis of stromal cells; assay type: in vivo, rat
Experimental: In this example, the ability of PEGPH20 to cause apoptosis of stromal cells was analyzed. In situ detection of cell apoptosis by TUNEL assay was based on a reaction for in situ terminal deoxynucleotidyl-transferase (TdT)-mediated biotinylated UTP nick-end labelling (TUNEL). This was essentially performed by using the FragEL DNA (Cat# QIA39-1EA, Calbiochem, Gibbstown, N.J.) according to the manufacturer's directions. In brief, de-paraffinized tissue sections were treated with proteinase K (0.02 mg/mL, Cat#25530, Invitrogen, Carlsbad, Calif.). The slides were then washed in Tris buffered saline (TBS), and endogenous peroxidase was blocked for 5 min in 3% H2O2 diluted in methanol. After washes in TBS, sections were treated with 1×TdT equilibration buffer at room temperature for 30 min and subsequently incubated with TdT labelling reaction mix ([…]) for 1.5 h at 37° C. The slides were rinsed in TBS and mounted using Fluorein-FragEL mounting media, then sealed with nail polish. The number of TUNEL-positive cells was counted on each section at ×200 under a light microscope.
as §2

[3] = cited from earlier work

Row | Structure (SMILES) | increase in prostate size ([1]; 25 mg TE per rat im once a week for a month) [fold] | Prostatic Weight (g) Mean ± SD ([1]; TE 25 mg/rat days 0, 7, 14, sacrificed day 21) [g] | Prostatic Weight Mean ± SD ([1]; TE 3 wks (25 mg/rat days 0, 7, 14), day 21) [g] | increase in prostate weight post TE exposure ([1]; day 7, TE 25 mg/rat im) [%] | increase in prostate weight post TE exposure ([1]; day 18, TE 25 mg/rat im days 0, 7 and 14) [%] | Prostatic Weight (g) Mean ± SD ([1]; group 1: 3 wk TE (25 mg/rat days 0, 7, 14), day 21) [g] | Prostatic Weight (g) Mean ± SD ([1]; group 1: TE 25 mg/rat days 0, 7, sacrificed day 28) [g] | Prostatic Weight (g) Mean ± SD ([1]; group 2: TE 25 mg/rat days 0, 7, 14, 21, sacrificed day 28) [g] | Prostatic Weight (g) Mean ± SD ([1]; group 3: TE 25 mg/rat days 0, 7, sacrificed day 21) [g] | Effect on HA [2] | Effect on Stroma [2] | Apoptotic cells/section Mean ± SD (prostate stromal cells; TE 7 d) [cells/section] | Apoptotic cells/section Mean ± SD (prostate stromal cells; TE 18 d) [cells/section] | half-life of TE in the rat blood [3] | inhibition of prostate growth ([1]; TE days 0, 7, PEGPH20 0.82 mg/kg iv QOD days 7-20 or finasteride 25 mg/kg ip daily days 7-20, day 21, vs TE alone P<0.01) | reduction in prostate size relative to vehicle control ([1]; TE days 1 and 7, finasteride 2.5 mg/kg ip daily starting on day 7) [%] | % Inhibit ([1]; group 4: 3 wk TE, finasteride (25 mg/kg ip daily, 2 wk)) [%] | Prostatic Weight (g) Mean ± SD ([1]; group 4: 3 wk TE, finasteride (25 mg/kg ip daily, 2 wk), day 21, P 0.007) [g]
1 | CCCCCCC(=O)O[C@H]1CC[C@H]2[C@@H]3CCC4=CC(=O)CC[C@]4(C)[C@H]3CC[C@]12C [TE, testosterone enanthate] | ~3 | 1.54 ± 0.07 | 1.64 ± 0.12 | 18.9 | 85.7 | 1.33 ± 0.23 | 1.49 ± 0.47 | 1.76 ± 0.18 | 1.57 ± 0.09 | Increased | Increased proliferation | 4.6 ± 2.51 | 1.75 ± 1.71 | approximately 10.5 days | – | – | – | –
2 | CC(C)(C)NC(=O)[C@H]1CC[C@H]2[C@@H]3CC[C@H]4NC(=O)C=C[C@]4(C)[C@H]3CC[C@]12C [finasteride, (5α,17β)-N -(1,1-dimethethylethy)-3-oxo-4-azaandrost-1-ene-17-carboxamide] | – | – | – | – | – | – | – | – | – | – | – | – | – | – | approximately 37% | 18.7 | 25.2 | 1.00 ± 0.19
